Data set [1] deals with GBM8 glioblastoma patient-derived cell culture. Kind of data set: In vitro drug screening, cell viability by CellTiter GLO 2.0 after 5 days. The following applies: Homo sapiens, 120 h, 5 days incubation. The data set is classed as cell-based. On the procedure:
(§1) Glioblastoma stem-like cell cultures (GSC) were derived from primary brain tumor samples received directly from the operating room. Tumor classification was performed by the local neuropathologist according to guidelines of the WHO 2007 and 2016 classification of primary brain tumors. The use of patient tissue for this study was approved by the local ethics committee and all patients signed informed consent forms according to the guidelines of the Institutional Review Board. Samples were processed as described previously. The GBM8 cell line was kindly provided by dr. Hiroaki Wakimoto (Massachusetts General Hospital, Boston, MA, USA). All cell cultures were grown in Dulbecco’s modified Eagle’s medium (DMEM)–F12 with 1% penicillin/streptomycin, B27 (Invitrogen), human epidermal growth factor (EGF; 5 μg/mL), human basic fibroblast growth factor (FGF; 5 μg/mL) (both from Tebu-Bio) and heparin ([…]; Sigma-Aldrich, St. Louis, MI, USA).
(§2) Glioma stem-like cell cultures were cultured under serum free conditions according to Verheul et al.. Cells were seeded in 96-well plates (Greiner bio-one, Kremsmünster, Austria) coated with extracellular matrix (BD Bioscience, Becton Drive Franklin Lakes, NJ, USA) at 1000 cells/well. A stock solution of OMA was diluted in a serum-free cell culture medium to obtain a starting concentration of 8 μM in 0.1% DMSO. Serial dilutions of OMA and DMSO were added to the wells 24 h later for an incubation period of 5 days. Cell viability was measured by the CellTiter GLO 2.0 and dose–response curves and IC50 values were calculated using GraphPad Prism version 9. All experiments were performed in 3 biological replicates.
(§3) GraphPad Prism software version 9.5 (GraphPad Software) was used for calculating IC50 values using nonlinear regression (curve-fit). GraphPad Prism was used to determine whether there was a statistically significant difference in OMA concentration and the B/P ratio between the L and R hemispheres of mice bearing GS832, GS607 and GBM8 tumors, using an unpaired t-test. […]
For orientation: Cellular ATP, detected with luciferase, serves as a proxy for viable cell number.

The subject of data set [2] is GS607 glioblastoma patient-derived cell culture. The data set is described as above. In kind it is cell-based. The following applies: Homo sapiens, 120 h, 5 days incubation. On the procedure:
as §1, §2, §3

The test system of data set [3] is GS832 glioblastoma patient-derived cell culture. The description is as above. The data set is classed as cell-based. The conditions noted are these: Homo sapiens, 120 h, 5 days incubation. On the procedure:
as §1, §2, §3

The target in a further data set is T1, human P-gp (ABCB1) (Homo sapiens, UniProt P08183).
T1 construct: expressed in transfected cells; host or cells: LLC-PK1 (pig kidney) cells transduced with human ABCB1 (LLC-MDR1)
T1 sequence (P08183 whole entry): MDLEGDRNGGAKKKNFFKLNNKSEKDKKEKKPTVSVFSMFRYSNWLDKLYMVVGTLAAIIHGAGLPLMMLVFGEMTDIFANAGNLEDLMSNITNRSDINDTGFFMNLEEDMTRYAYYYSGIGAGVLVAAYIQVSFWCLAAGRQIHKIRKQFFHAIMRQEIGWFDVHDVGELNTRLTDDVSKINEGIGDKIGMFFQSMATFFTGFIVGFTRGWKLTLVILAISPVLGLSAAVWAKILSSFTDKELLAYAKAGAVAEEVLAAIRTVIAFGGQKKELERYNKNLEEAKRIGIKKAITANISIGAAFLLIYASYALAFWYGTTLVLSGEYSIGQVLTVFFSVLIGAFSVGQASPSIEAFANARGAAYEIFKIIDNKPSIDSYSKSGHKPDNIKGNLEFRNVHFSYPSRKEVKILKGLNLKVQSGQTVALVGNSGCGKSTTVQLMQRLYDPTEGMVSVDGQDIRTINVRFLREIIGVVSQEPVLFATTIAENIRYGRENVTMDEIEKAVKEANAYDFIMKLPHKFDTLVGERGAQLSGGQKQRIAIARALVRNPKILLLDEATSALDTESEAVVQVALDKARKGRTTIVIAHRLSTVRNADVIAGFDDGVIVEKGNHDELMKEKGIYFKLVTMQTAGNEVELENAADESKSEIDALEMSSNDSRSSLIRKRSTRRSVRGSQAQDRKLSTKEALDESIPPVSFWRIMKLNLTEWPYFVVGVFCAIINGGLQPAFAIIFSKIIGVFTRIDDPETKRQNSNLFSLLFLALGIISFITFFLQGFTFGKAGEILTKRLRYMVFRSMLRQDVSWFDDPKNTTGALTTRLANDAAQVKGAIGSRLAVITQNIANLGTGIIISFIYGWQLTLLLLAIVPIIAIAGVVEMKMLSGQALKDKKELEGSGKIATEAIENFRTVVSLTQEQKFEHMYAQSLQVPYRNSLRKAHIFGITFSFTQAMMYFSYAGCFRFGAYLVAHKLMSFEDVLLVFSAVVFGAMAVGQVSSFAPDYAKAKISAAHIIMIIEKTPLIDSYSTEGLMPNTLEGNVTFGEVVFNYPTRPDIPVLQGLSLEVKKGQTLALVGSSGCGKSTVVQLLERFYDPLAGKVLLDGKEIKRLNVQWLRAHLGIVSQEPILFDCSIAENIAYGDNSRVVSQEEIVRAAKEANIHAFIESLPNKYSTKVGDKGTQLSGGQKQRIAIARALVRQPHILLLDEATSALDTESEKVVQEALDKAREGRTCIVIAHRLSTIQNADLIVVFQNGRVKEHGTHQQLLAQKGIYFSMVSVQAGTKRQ
Kind of data set: Concentration equilibrium transport assay (CETA), LLC-PK1 cells transduced with human ABCB1. The data set is classed as in vitro ADME. The following applies: omacetaxine 100 nM, up to 4 h. On the procedure:
(§4) In vitro transport studies were performed using the LLC pig kidney cell line (LLC-PK1) and sub-lines transduced with murine Abcb1a (LLC-Mdr1a) or human ABCB1 (LLC-MDR1). Similarly, in vitro transport studies were conducted in the parental Madin–Darby canine kidney (MDCK) type II cell line (MDCK-Parent) and murine Abcg2 (MDCK-Bcrp1) or human ABCG2 (MDCK-BCRP) transduced sublines. Concentration equilibrium transport assays (CETA) were performed as previously described. Briefly, cells were grown on polycarbonate membrane filters (3.0 µm pores, 24 mm diameter; Costar Corning, NY, USA) for 4 days. Next, 2 mL of MEM medium containing 10% FCS and omacetaxine (100 nM) was added to both the apical and basal compartments. Then, [14C]-inulin ([…]) was added basolateral to check the membrane integrity. Zosuquidar 1 μM was added to all wells containing MDCK cells to inhibit endogenous (canine) ABCB1. […] The integrity of the membrane was checked by taking 20 μL samples from both apical and basolateral sides for radioactivity counting. […] OMA concentrations were measured using an LC-MS/MS system that consisted of an UltiMate 3000 LC System (Dionex, Sunnyvale, CA, USA) and an API 4000 mass spectrometer (Sciex, Framingham, MA, USA).

The target in another data set is T2, murine P-gp (Abcb1a) (Mus musculus, UniProt P21447).
T2 construct: expressed in transfected cells; host or cells: LLC-PK1 (pig kidney) cells transduced with murine Abcb1a (LLC-Mdr1a)
T2 sequence (P21447 whole entry): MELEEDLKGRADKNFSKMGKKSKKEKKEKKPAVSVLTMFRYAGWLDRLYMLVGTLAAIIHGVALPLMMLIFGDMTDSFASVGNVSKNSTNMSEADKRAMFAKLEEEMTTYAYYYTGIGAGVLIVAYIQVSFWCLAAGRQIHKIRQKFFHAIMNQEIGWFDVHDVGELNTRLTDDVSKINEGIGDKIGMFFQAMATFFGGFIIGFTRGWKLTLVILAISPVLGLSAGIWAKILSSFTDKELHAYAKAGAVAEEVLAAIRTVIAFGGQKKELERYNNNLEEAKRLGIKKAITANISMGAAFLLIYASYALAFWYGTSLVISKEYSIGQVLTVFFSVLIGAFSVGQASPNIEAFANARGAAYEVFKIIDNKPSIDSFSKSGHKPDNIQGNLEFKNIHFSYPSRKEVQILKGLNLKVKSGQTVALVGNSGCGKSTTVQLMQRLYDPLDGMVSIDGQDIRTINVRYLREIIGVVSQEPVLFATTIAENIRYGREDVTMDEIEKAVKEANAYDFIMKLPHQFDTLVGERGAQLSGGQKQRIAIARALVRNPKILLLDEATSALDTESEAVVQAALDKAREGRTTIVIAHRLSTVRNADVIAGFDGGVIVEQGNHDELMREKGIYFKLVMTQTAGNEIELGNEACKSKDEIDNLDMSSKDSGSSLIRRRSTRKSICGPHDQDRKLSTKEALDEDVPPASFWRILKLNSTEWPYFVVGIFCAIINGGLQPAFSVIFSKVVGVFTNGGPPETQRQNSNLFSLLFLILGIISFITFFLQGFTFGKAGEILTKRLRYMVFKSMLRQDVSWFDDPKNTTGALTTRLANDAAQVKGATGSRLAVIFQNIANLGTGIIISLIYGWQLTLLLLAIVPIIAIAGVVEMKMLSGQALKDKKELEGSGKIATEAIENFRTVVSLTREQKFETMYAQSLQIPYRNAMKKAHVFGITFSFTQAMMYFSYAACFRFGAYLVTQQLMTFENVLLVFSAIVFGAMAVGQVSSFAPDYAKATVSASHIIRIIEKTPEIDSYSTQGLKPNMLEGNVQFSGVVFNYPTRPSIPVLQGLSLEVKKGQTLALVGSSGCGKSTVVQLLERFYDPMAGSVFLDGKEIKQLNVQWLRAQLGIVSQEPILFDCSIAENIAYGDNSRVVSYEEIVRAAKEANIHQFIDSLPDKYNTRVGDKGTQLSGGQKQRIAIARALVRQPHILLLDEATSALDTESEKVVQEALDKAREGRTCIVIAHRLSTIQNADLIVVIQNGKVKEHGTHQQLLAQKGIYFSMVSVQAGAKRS
Description: Concentration equilibrium transport assay (CETA), LLC-PK1 cells transduced with murine Abcb1a. The data set is classed as in vitro ADME. The conditions noted are these: omacetaxine 100 nM, up to 4 h. The protocol:
as §4

The next data set addresses T3, murine BCRP (Abcg2) (Mus musculus, UniProt Q7TMS5).
T3 construct: expressed in transfected cells; host or cells: MDCK type II (canine kidney) cells transduced with murine Abcg2 (MDCK-Bcrp1)
T3 sequence (Q7TMS5 1-657): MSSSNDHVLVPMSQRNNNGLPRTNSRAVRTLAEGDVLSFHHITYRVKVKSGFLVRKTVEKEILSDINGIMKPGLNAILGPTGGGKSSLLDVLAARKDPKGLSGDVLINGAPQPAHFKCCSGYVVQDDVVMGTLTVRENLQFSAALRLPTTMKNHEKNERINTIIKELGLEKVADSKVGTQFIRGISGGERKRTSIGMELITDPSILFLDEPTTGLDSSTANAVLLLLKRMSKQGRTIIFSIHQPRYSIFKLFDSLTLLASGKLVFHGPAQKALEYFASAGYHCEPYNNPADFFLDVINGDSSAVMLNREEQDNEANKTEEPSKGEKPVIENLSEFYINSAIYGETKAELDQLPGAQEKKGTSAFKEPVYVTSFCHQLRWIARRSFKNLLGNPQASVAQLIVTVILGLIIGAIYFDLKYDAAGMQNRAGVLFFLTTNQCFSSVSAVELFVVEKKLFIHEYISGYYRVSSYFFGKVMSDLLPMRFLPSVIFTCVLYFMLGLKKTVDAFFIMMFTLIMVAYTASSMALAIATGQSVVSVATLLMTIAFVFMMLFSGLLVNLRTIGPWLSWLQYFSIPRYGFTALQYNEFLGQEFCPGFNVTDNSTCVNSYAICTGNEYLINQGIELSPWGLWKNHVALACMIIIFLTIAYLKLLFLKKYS
Description: Concentration equilibrium transport assay (CETA), MDCK cells transduced with murine Abcg2, with zosuquidar. The following applies: omacetaxine 100 nM, zosuquidar 1 μM, up to 4 h. In kind it is in vitro ADME. The protocol:
as §4

For data set [4] the following is noted: humans, cited from earlier work.

The structures appear in SMILES notation.

These results are taken from article PMC11678797, “A Repurposed Drug Selection Pipeline to Identify CNS-Penetrant Drug Candidates for Glioblastoma” (Pharmaceuticals, 2024).

The term IC50 denotes the concentration that inhibits the measured activity by half. One may read the Cmax as the maximum level reached in the sampled fluid or tissue. As a reminder, the half-life is the time needed for the level to fall by half in the phase considered.

`COC(=O)C[C@](O)(CCCC(C)(C)O)C(=O)O[C@@H]1C(OC)=C[C@]23CCCN2CCc2cc4c(cc2[C@H]13)OCO4` [OMA, Omacetaxine mepesuccinate]: the IC50 was found to be 7.2 nM in data set [1], 22.9 nM in data set [2] and 4.9 nM in data set [3]. Besides, the “substrate of P-gp (translocation basolateral to apical)” value on human P-gp (ABCB1) and on murine P-gp (Abcb1a) was “weak substrate” in each case. Besides, the “substrate of BCRP (translocation between apical and basolateral compartments)” value at murine BCRP (Abcg2) was “not a substrate”. Also, the “time to reach Cmax plasma” value in data set [4] (s.c. administration) is listed as 1 h. For the same compound, the Cmax in data set [4] (DrugBank, read-out: reported Cmax plasma value) is 43 nM. In data set [4], the half-life was 7 h.
